# “Also recorded” adds a separate entry of the source. Where a SMILES comes first, the peptide text is derived from it. Where no end group is shown, it is not given here. The star is where a group is joined. Octanoyl = CCCCCCCC(=O)*
# What was measured:
# SNpc DA neurons [1] = assay: Patch clamp (whole-cell current clamp) recordings of action potentials in brain slices, bath application; type: cell-based, mice; settings: 1 μM
# Experimental: Brain slices preparation: Brain slices (300 µm) containing the SN, will be cut on a vibratome from 4-6 week old males (n=10 per group). Briefly, animals will be anesthetized with Nembutal (80 mg/kg) and then decapitated. The brains will be rapidly removed and immersed in cold […] oxygenated bath solution (containing (mM): NaCl 150, KCl 2.5, CaCl2 2, MgCl2 2 Hepes 10, and glucose […] with NaOH). After being trimmed to contain only the SN, slices will be transferred to a recording chamber where they are constantly perfused with bath solution at 2 ml/min. DA neurons in the SN are identified by presence of a large Ih current (>100 pA) evoked by hyperpolarizing voltage steps from −50 to −120 mV for 2 s (22). This approach identifies dopaminergic cells with >90% accuracy. In brain slices, whole-cell current clamp will be used to observe spontaneous action potentials. Slices will be maintained at 330 C and perfused continuously with ASCF (bubbled with 5% CO2 and 95% O2) containing (in mM): NaCl, 124; KCl, 3; CaCl2, 2; MgCl2, 2; NaH2PO4, 1.23; NaHCO3, 26; glucose, 10; pH 7.4 with NaOH. Ghrelin Splice Variant will be applied to the recording chamber via bath application.The pipette solution containes (mM): Gluconic Acid 140, CaCl2, MgCl2 2, EGTA 1, HEPES 10, Mg-ATP 4, and Na2-GTP 0.5, pH 7.3 with KOH. To further explore the mechanism of Ghrelin Splice Variant-mediated effect on action potentials in DA neurons, we will analyze the effect of Ghrelin Splice Variant on action potential frequency either in the presence of ionotropic glutamate receptor antagonists CNQX (10 µM) and APS (50 µM) in all solutions, or in the presence of bicuculine (30 µM; to block diminish GABA effects) in all solutions. Analysis: All data will be sampled at 3-10 kHz and […] at 1-3 kHz with an Apple Macintosh computer using Axograph 4.9 (Axon Instruments). Electrophysiological data will be analyzed with Axograph 4.9 (Axon Instruments) and plotted with Igor Pro software (WaveMetrics, Lake Oswego, Oreg., USA). To complement, the electron microscopic measurements of synapses, we will also analyze mEPSC and mIPSC of SN DA neurons. Mice (C57BL/J6; n=10) between the ages of 4-6 weeks of age will be injected with Ghrelin Splice Variant (30 μg in 0.3 ml) or vehicle ip at 09:00 hrs. Two hours later, animals will be sacrificed under neinbutal anesthesia and their brains collected as described above. For the recording of mEPSCs and IPSCs, SN DA cells will be patched with pipettes with a tip resistance of 4-6 MΩ and partially compensated by the amplifier. The pipette will be filled with a solution containing the following (mM): KMeSO, 145 (mEPSC) or KCL, 145 (mIPSC); MgCl2, 2; HEPES, 10; Mg-ATP, 2.; Nat-GTP, 0.3; and KOH to adjust pH to 7.3. mEPSC recordings will be achieved under the prescence of TTX and bicucullin, whereas mIPSC will be monitored under the presence of TTX, AP5 and CNQX. The frequency and amplitude of mEPSC and IPSC will be recorded as described previously. Differences in the frequency of mEPSCs and mIPSCs of DA cells from Ghrelin Splice Variant and saline treated animals will be compared using unpaired t-tests with the critical level set at α=0.05). […] N=number of cells recorded.
# growth hormone = assay: GH release after subcutaneous bolus injection (growth hormone ELISA); type: in vivo, mice; settings: 20 μg subcutaneous bolus; 10 minutes after administration
# Experimental: Acylated ghrelin splice variants (20 μg) or the Vehicle (1.6% mannitol) were administered by a subcutaneous bolus injection (Corresponding to 0.3 μmol/kg) to 5 mice each. Blood was sampled 10 and 20 min after injection. Serum samples were stored at −70° C. and analyzed by the RAT/MOUSE GROWTH HORMONE ELISA KIT 96-Well Plate (Cat. EZRMGH-45K) (Millipore Corporation, Billerica, Mass., USA). Results: The serum […] growth hormone concentration 10 minutes after subcutaneous administration of acylated ghrelin splice variant or the Vehicle was 2-14-fold higher in the ghrelin splice variant group in comparison to the vehicle group.
# SNpc DA neurons [2] = assay: mEPSC recordings in GHSR1a knockout mice and their WT littermates; type: cell-based; settings: 1 μM, in presence of TTX and bicuculline
# [3] = tested on: C57Bl/6 mice primary cell culture; assay: Trypan blue cell viability assay, protection against H2O2-induced cell death; type: cell-based; settings: for protective action against the damages produced by H2O2 in terms of cell viability: 50 μM H2O2 plus 1 μM peptide, compared to negative control (H2O2)
# Experimental: The protective effects of ghrelin splice variant against induced cell death, cell viability, of C57Bl/6 mice primary cell culture, was analysed by trypan blue assay, an indirect method based on the dye exclusion of live cells with intact cell membrane.
# Cells were treated with 50 μM H2O2 to induce cell damages and death. The neuroprotective effect of ghrelin splice variant was tested by treating the cells with either H2O2 plus 1 μM ghrelin splice variant, H2O2 plus 1 μM ghrelin or H2O2 plus both peptides. Controls samples were untreated cells.
# SN DA neurons = assay: mEPSC and mIPSC recordings of SN DA neurons after treatment of WT mice; type: in vivo; settings: compared with saline control, n=6 cells
# Experimental: Brain slices preparation: Brain slices (300 µm) containing the SN, will be cut on a vibratome from 4-6 week old males (n=10 per group). Briefly, animals will be anesthetized with Nembutal (80 mg/kg) and then decapitated. The brains will be rapidly removed and immersed in cold […] oxygenated bath solution (containing (mM): NaCl 150, KCl 2.5, CaCl2 2, MgCl2 2 Hepes 10, and glucose […] with NaOH). After being trimmed to contain only the SN, slices will be transferred to a recording chamber where they are constantly perfused with bath solution at 2 ml/min. DA neurons in the SN are identified by presence of a large Ih current (>100 pA) evoked by hyperpolarizing voltage steps from −50 to −120 mV for 2 s (22). This approach identifies dopaminergic cells with >90% accuracy. […] Electrophysiological data will be analyzed with Axograph 4.9 (Axon Instruments) and plotted with Igor Pro software (WaveMetrics, Lake Oswego, Oreg., USA). […] The pipette will be filled with a solution containing the following (mM): KMeSO, 145 (mEPSC) or KCL, 145 (mIPSC); MgCl2, 2; HEPES, 10; Mg-ATP, 2.; Nat-GTP, 0.3; and KOH to adjust pH to 7.3. mEPSC recordings will be achieved under the prescence of TTX and bicucullin, whereas mIPSC will be monitored under the presence of TTX, AP5 and CNQX. The frequency and amplitude of mEPSC and IPSC will be recorded as described previously. […] N=number of cells recorded.
# [4] = Pharmacokinetics after subcutaneous administration, plasma LC/MS/MS; type: in vivo, Sprague-Dawley rats; settings: Sprague-Dawley, rat; for half-life: across dose groups; for AUC / AUC(0-inf): SC; for AUC: high dose (10 mg/kg)
# Experimental: Subcutaneous administration of ghrelin splice variants was performed at three dose levels of 0.5, 2.5 and 10 mg/kg corresponding to concentrations of 0.1, 0.5 and 2 mg/ml, respectively, and at a constant volume dosage of 5 ml/kg. Intravenous injection was performed at one dose level of 0.5 mg/kg corresponding to a concentration of 0.1 mg/ml and a constant volume dosage of 5 ml/kg as well. The study comprised 9 male and 9 female Sprague-Dawley™ (SD™) rats per dose level and route of administration.
# Bleeding sampling design was confined to 9 bleeding time points for each dose level: pre-dosing, 5, 15, 30, 60 and 90 min, 3, 5 and 24 hrs, post-dosing. Each group was divided into 3 sub-groups, each being assigned 3 specific bleeding time points, in order to receive 3 individual samples/time point/group (total of 27 individual samples/group). […] Whole blood samples were kept on ice from the time of blood collection until the time of centrifugation. The obtained plasma samples were flash frozen in liquid nitrogen and kept on dry ice until removal to −70° C.
# Concentrations of the Test Item in plasma were determined by LC/MS/MS (liquid chromatography/mass spectrometry/mass spectrometry). Pharmacokinetic analysis of Ghrelin Splice Variant was based on mean plasma concentration time profiles for each dose group as obtained by Non-compartmental Pharmacokinetic analysis, generated by the use of the computer software: “PK Solutions 2.0” (Summit Research Services, Colo., USA).
# MPTP-mice = assay: MPTP mouse model of Parkinson's disease; type: in vivo; settings: 10 nmol once-a-day, day -7 to day 10 after MPTP
# Experimental: In the MPTP model, the bilateral dopaminergic neuronal death of the substantia nigra and dopamine depletion of the striatum is created by i.p. injection of MPTP. Experimental groups:
# • Group 1: 10 Sham-mice treated with vehicle (10 ml/kg) once-a-day starting day-7 and continuing until the end of the study day 10 • Group 2: 10 MPTP-mice treated with vehicle (10 ml/kg) once-a-day starting day-7 and continuing until the end of the study day 10 • Group 3: 10 MPTP-mice treated with Ghrelin SplicVariant (10 nmol) once-a-day starting day-7 and continuing until the end of the study day 10 Ghrelin Splice Variant or vehicle was administered once-a-day immediately before the dark phase, and […] were removed overnight starting seven days prior to MPTP challenge and continued until end-point day 10 after MPTP. Striatal levels of dopamine (DA), […] (DOPAC) and homovanillic acid (HVA) are evaluated 10 days after the injection of MPTP with HPLC. In addition, the selective damage to dopaminergic neurons in the SNc is evaluated with tyrosine hydroxylase (TH) immunoreactivity. Food intake and body weight were monitored daily in all mice administered Ghrelin Splice Variant.
# [5] = cited from earlier work
# [6] = listed as Ghrelin splice variant
compound,measurement,setting,value
CCCCCCCC(=O)OC[C@H](NC(=O)[C@H](CO)NC(=O)CN)C(=O)N[C@@H](Cc1ccccc1)C(=O)N[C@@H](CC(C)C)C(=O)N[C@@H](CO)C(=O)N1CCC[C@H]1C(=O)N[C@@H](CCC(=O)O)C(=O)N[C@@H](Cc1c[nH]cn1)C(=O)N[C@@H](CCC(N)=O)C(=O)N[C@@H](CCCNC(=N)N)C(=O)N[C@H](C(=O)N[C@@H](CCC(N)=O)C(=O)N[C@H](C(=O)N[C@@H](CCCNC(=N)N)C(=O)N1CCC[C@H]1C(=O)N1CCC[C@H]1C(=O)N[C@@H](Cc1c[nH]cn1)C(=O)N[C@@H](CCCCN)C(=O)N[C@@H](C)C(=O)N1CCC[C@H]1C(=O)N[C@@H](Cc1c[nH]cn1)C(=O)O)C(C)C)C(C)C [Ghrelin Splice Variant] (H-GSS(Octanoyl)FLSPEHQRVQVRPPHKAPH-OH),action potential firing,SNpc DA neurons [1],increment in AP firing
same,depolarization,SNpc DA neurons [1],about 10 mV
same,duration of effect after washout,SNpc DA neurons [1],20 min
same,action potential firing,SNpc DA neurons [1]; [6],increment in action potential firing
same,duration of effect after washout,SNpc DA neurons [1]; [6],at least 20 minutes
same,serum and brain growth hormone concentration in comparison to the vehicle group,growth hormone,2-14 fold
same,mEPSC frequency,"SNpc DA neurons [2]; GHSR1a knockout mice, n=9 cells",27.3+/−2.8 per min
same,mEPSC frequency,"SNpc DA neurons [2]; WT animals, n=31 cells",98.1+/−24.7 per min
same,protective action against the damages produced by H2O2 in terms of cell viability,[3]; [6],effective protective action
same,protective action against the damages produced by H2O2 in terms of cell viability,[3]; listed as ghrelin splice variant,statistically significant effective protective action; also recorded: greater than ghrelin treatment
same,frequency of mEPSCs,SN DA neurons,67.2 ± 3.1
same,frequency of mIPSCs,SN DA neurons,60.5 ± 8.9
same,half-life,"[4]; subcutaneous, female rats",10.7 to 28.9 min
same,half-life,"[4]; subcutaneous, male rats",17.4 to 26.4 min
same,Tmax,"[4]; both sexes, subcutaneous, post-dosing, all dose groups",5 min
same,AUC,"[4]; female, females",818 ng·h/mL
same,AUC(0-inf),"[4]; female, low dose (0.5 mg/kg), females",86.7 ng·h/mL
same,AUC(0-inf),"[4]; female, mid dose (2.5 mg/kg), females",347 ng·h/mL
same,AUC,"[4]; male, males",1320 ng·h/mL
same,AUC(0-inf),"[4]; male, low dose (0.5 mg/kg), males",102 ng·h/mL
same,AUC(0-inf),"[4]; male, mid dose (2.5 mg/kg), males",313 ng·h/mL
same,MPTP-induced nigrostriatal DA damage (loss of DA neurons),MPTP-mice,attenuates MPTP-induced nigrostriatal PA damage
same,cumulative weight gain / recovery after MPTP treatment,MPTP-mice,managed to recover after the MPTP treatment
"OO [H2O2, reference compound]",cell survival,[3]; 50 μM H2O2 alone,50%
"Ghrelin: 28 amino acid peptide bearing an n-octanoyl side chain on the third serine (GSS(Octanoyl)FLSPEHQRVQQRKESKKPPAKLQPR; UniProt Q9UBU3 24-51, looked up) [reference compound]",increase of food intake,"[5]; infusion for 90 minutes, cancer cachexia patients",30%
same,increase of energy intake,[5]; subcutaneous injection of 3.6 nmol/kg prior to a meal,27%
same,protective action against the damages produced by H2O2 in terms of cell viability,[3],statistically significant
same,protective action against the damages produced by H2O2 in terms of cell viability,[3]; listed as ghrelin,statistically significant effective protective action

# Reference: US10526383B2, “Ghrelin splice variant for treating neuronal damage, neurodegenerative disease, parkinsons disease, alzheimers disease, and/or depression” (priority 2013, dated 2020)
